From the supplement of paper PMC4862054

Key:
Conditions in all cases: incubation time: 72 h
BT-549 [1] = experiment: normalised response (% of control), CellTox Green; higher = less cell death (100 = DMSO, 0 = benzethonium chloride kill control)
In short: (§1)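 Two readouts were taken after 72 h: CellTox Green fluorescence (485/520 nm) first, then CellTiter-Glo luminescence after 10 min at room temperature. Breast cancer cell lines had been seeded as 20 µl suspension into 384-well plates holding compound at 5 concentrations in 10-fold steps across a compound-specific 10,000-fold range. Each value is a normalised signal at a single concentration, with plates scaled to 0.1 % DMSO (100) and a positive kill control (0).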

CAL-120 [2] = experiment: as above
In short: as §1

CAL-148 [3] = experiment: as above
In short: as §1

CAL-85-1 [4] = experiment: as above
In short: as §1

DU-4475 = experiment: as above
In short: as §1

HCC1143 [5] = experiment: as above
In short: as §1

HCC1599 [6] = experiment: as above
In short: as §1

HCC1937 [7] = experiment: as above
In short: as §1

HDQ-P1 [8] = experiment: as above
In short: as §1

Hs578T [9] = experiment: as above
In short: as §1

MCF-10A [10] = experiment: as above
In short: as §1

MDA-MB-231 [11] = experiment: as above
In short: as §1

MDA-MB-436 [12] = experiment: as above
In short: as §1

MDA-MB-453 [13] = experiment: as above
In short: as §1

BT-474 = experiment: normalised response (% of control), CellTiter-Glo; higher = more viable cells (100 = DMSO, 0 = benzethonium chloride kill control)
In short: as §1

BT-549 [14] = experiment: as above
In short: as §1

CAL-120 [15] = experiment: as above
In short: as §1

CAL-148 [16] = experiment: as above
In short: as §1

CAL-51 = experiment: as above
In short: as §1

CAL-85-1 [17] = experiment: as above
In short: as §1

HCC1143 [18] = experiment: as above
In short: as §1

HCC1599 [19] = experiment: as above
In short: as §1

HCC1937 [20] = experiment: as above
In short: as §1

HDQ-P1 [21] = experiment: as above
In short: as §1

Hs578T [22] = experiment: as above
In short: as §1

MCF-10A [23] = experiment: as above
In short: as §1

MDA-MB-231 [24] = experiment: as above
In short: as §1

MDA-MB-436 [25] = experiment: as above
In short: as §1

MDA-MB-453 [26] = experiment: as above
In short: as §1

MDA-MB-468 = experiment: as above
In short: as §1

MFM-223 = experiment: as above
In short: as §1

SK-BR-3 = experiment: as above
In short: as §1

Compound	normalised response (BT-549 [1]) [%]	normalised response (CAL-120 [2]) [%]	normalised response (CAL-148 [3]) [%]	normalised response (CAL-85-1 [4]) [%]	normalised response (DU-4475) [%]	normalised response (HCC1143 [5]) [%]	normalised response (HCC1599 [6]) [%]	normalised response (HCC1937 [7]) [%]	normalised response (HDQ-P1 [8]) [%]	normalised response (Hs578T [9]) [%]	normalised response (MCF-10A [10]) [%]	normalised response (MDA-MB-231 [11]) [%]	normalised response (MDA-MB-436 [12]) [%]	normalised response (MDA-MB-453 [13]) [%]	normalised response (BT-474) [%]	normalised response (BT-549 [14]) [%]	normalised response (CAL-120 [15]) [%]	normalised response (CAL-148 [16]) [%]	normalised response (CAL-51) [%]	normalised response (CAL-85-1 [17]) [%]	normalised response (HCC1143 [18]) [%]	normalised response (HCC1599 [19]) [%]	normalised response (HCC1937 [20]) [%]	normalised response (HDQ-P1 [21]) [%]	normalised response (Hs578T [22]) [%]	normalised response (MCF-10A [23]) [%]	normalised response (MDA-MB-231 [24]) [%]	normalised response (MDA-MB-436 [25]) [%]	normalised response (MDA-MB-453 [26]) [%]	normalised response (MDA-MB-468) [%]	normalised response (MFM-223) [%]	normalised response (SK-BR-3) [%]
CO[C@H](C(=O)[C@@H](O)[C@@H](C)O)[C@@H]1Cc2cc3cc(O[C@H]4C[C@@H](O[C@@H]5C[C@@H](O)[C@H](O)[C@@H](C)O5)[C@H](O)[C@@H](C)O4)c(C)c(O)c3c(O)c2C(=O)[C@H]1O[C@H]1C[C@@H](O[C@@H]2C[C@@H](O)[C@@H](O[C@@H]3C[C@](C)(O)[C@H](O)[C@@H](C)O3)[C@@H](C)O2)[C@H](O)[C@@H](C)O1 [Plicamycin] (10000 nM)	79.8	71.9	68.9	39.3	87.9	82.2	87.9	114	82.1	40.9	9.61	55.1	109	45.7																		
C[C@@H]1C[C@H]2[C@@H]3CCC4=CC(=O)C=C[C@]4(C)[C@@]3(F)[C@@H](O)C[C@]2(C)[C@@]1(O)C(=O)CO [Dexamethasone] (10000 nM)	100	102	100	130	97.4	51.4	94.4	61.1	99.2	87.4	81.8	139	97.4	100																		
COc1cc2c(N3CCN(C(=O)Nc4ccc(OC(C)C)cc4)CC3)ncnc2cc1OCCCN1CCCCC1 [Tandutinib] (100 nM)	129	97.3	100	110	98	93.2	91.2	112		91.6	108	105	94.2	106	105	103	101	101	96.2	109	103	121	100	102	96.3	96.6	106	114	97.4	103	101	98.4
Cn1nnc2c(C(N)=O)ncn2c1=O [Temozolomide] (10000 nM)	75.3	98.5	102	105	98.2	93.6	99.2	105	109	111	93.2	108	94.4	101																		
CC[C@@H]1C(=O)N(C)c2cnc(Nc3ccc(C(=O)N[C@H]4CC[C@H](N5CCN(CC6CC6)CC5)CC4)cc3OC)nc2N1C(C)C [Volasertib] (1000 nM)	71	63.5	85.8	88.7	90.4	-18.9	74.2	59.1	31.2	-77.7	56.1	95	92.7	91.3																		
COc1cc2c(Oc3ccc(NC(=O)C4(C(=O)Nc5ccc(F)cc5)CC4)cc3F)ccnc2cc1OCCCN1CCOCC1 [Foretinib] (1000 nM)	88.3	99.9	33.1	76.8	95.2	46	92	99.8	58.9	75.7	101	-15.4	81.9	93.5																		
Cc1c(N)nc([C@H](CC(N)=O)NC[C@H](N)C(N)=O)nc1C(=O)N[C@H](C(=O)N[C@H](C)[C@@H](O)[C@H](C)C(=O)N[C@H](C(=O)NCCc1nc(-c2nc(C(=O)NCCC[S+](C)C)cs2)cs1)[C@@H](C)O)[C@@H](OC1OC(CO)C(O)C(O)C1OC1OC(CO)C(O)C(OC(N)=O)C1O)c1cnc[nH]1 (stereo not given in full) [Bleomycin] (10000 nM)	82.7	99.4	47.9	81.7	92.1	93.6	84	80.1	95.6	24.7	112	78	68	90.6																		
